This passage reports IC50 results from patent US20260347373A1, “HETEROCYCLIC COMPOUNDS, COMPOSITIONS THEREOF, AND METHODS OF TREATMENT THEREWITH” (BeOne Medicines I GmbH, priority 2023, published 2026).

SMILES strings stand for the structures.

For one test, the target named is WT KRAS (Homo sapiens, UniProt P01116). In words: KRAS WT Probe Displacement Assay (TR-FRET, GDP-loaded). The class given is binding. The conditions noted are these: KRAS WT, read-out: KRAS^WT Probe Displacement Assay IC50. An excerpt:
(§1) The synthetic routes of probe 1 and 2, which have been disclosed in PCT/CN2022/070676, are hereby incorporated herein.

For another test, the target named is KRAS G12D (Homo sapiens, UniProt P01116, G12D). In words: KRAS G12D Probe Displacement Assay (TR-FRET, GDP-loaded). The class given is binding. The conditions noted are these: KRAS G12D, read-out: KRAS^G12D Probe Displacement Assay IC50.
Source text: as §1

Chain of KRAS G12D (P01116 1-188 isoform P01116-2 G12D): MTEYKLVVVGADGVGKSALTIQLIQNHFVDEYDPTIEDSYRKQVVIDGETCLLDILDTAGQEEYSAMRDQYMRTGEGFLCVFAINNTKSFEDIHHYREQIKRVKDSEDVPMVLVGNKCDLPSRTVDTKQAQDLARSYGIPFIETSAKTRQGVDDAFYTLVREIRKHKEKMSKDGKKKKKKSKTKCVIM
Chain of WT KRAS (P01116 1-188 isoform P01116-2): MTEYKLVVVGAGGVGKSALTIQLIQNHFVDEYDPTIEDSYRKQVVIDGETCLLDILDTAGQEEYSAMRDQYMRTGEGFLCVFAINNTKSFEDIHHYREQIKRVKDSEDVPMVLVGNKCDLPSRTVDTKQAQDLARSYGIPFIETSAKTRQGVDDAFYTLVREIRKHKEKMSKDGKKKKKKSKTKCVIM

For `Cc1cc(N)cc(-c2nc3c4c(nc(OC[C@]5(O)COC[C@H]5N(C)C)nc4c2F)N2C[C@H]4CC[C@H](N4)[C@H]2CCO3)c1C(F)(F)F` [Example 131, (3R,4R)-3-((((6aR,7S,10R)-2-(5-amino-3-methyl-2-(trifluoromethyl)phenyl)-1-fluoro-5,6,6a,7,8,9,10,11-octahydro-4-oxa-3,11a,12,14,15-pentaaza-7,10-methanocyclohepta[4,5]cycloocta [1,2,3-de]naphthalen-13-yl)oxy)methyl)-4-(dimethylamino)tetrahydrofuran-3-ol], the IC50 at WT KRAS is 3 to 1000 nM; on KRAS G12D it was 0.3 to 3 nM.

Consider `Cc1cc(N)cc(-c2nc3c4c(nc(OCC5(CN6CCC(C)(O)CC6)CC5)nc4c2F)N2C[C@H]4CC[C@H](N4)[C@H]2CCO3)c1C(F)(F)F` [Example 115, 1-((1-((((6aR,7S, 10R)-2-(5-amino-3-methyl-2-(trifluoromethyl)phenyl)-1-fluoro-5,6,6a,7,8,9,10,11-octahydro-4-oxa-3, 11a,12,14,15-pentaaza-7,10-methanocyclohepta [4,5]cycloocta[1,2,3-de]naphthalen-13-yl)oxy)methyl)cyclopropyl)methyl)-4-methylpiperidin-4-ol], for which the IC50 at WT KRAS is 0.3 to 3 nM; at KRAS G12D it was below 0.3 nM.

As for `Nc1cc(Cl)c(C(F)(F)F)c(-c2nc3c4c(nc(OCC5(CN6CCC(=C(F)F)CC6)CC5)nc4c2F)N2C[C@H]4CC[C@H](N4)[C@H]2CCO3)c1` [Example 148, 3-chloro-5-((6aR,7S,10R)-13-((1-((4-(difluoromethylene)piperidin-1-yl)methyl)cyclopropyl)methoxy)-1-fluoro-5,6,6a,7,8,9,10,11-octahydro-4-oxa-3,11a,12,14,15-pentaaza-7,10-methano-cyclohepta[4,5]cycloocta [1,2,3-de]naphthalen-2-yl)-4-(trifluoromethyl)aniline], the IC50 is 0.3 to 3 nM on WT KRAS and below 0.3 nM at KRAS G12D.

For the compound `Cc1cc(N)cc(-c2nc3c4c(nc(OCC5(CN6CCC7(C6)CC7(F)F)CC5)nc4c2F)N2C[C@H]4CC[C@H](N4)[C@H]2CCO3)c1C(F)(F)F` (single isomer, unassigned) [Example 139], the IC50 at WT KRAS lay within 3 to 1000 nM.

Regarding `Cc1cc(N)cc(-c2nc3c4c(nc(OC[C@]5(CN(C)C)CC5(F)F)nc4c2F)N2C[C@H]4CC[C@H](N4)[C@H]2CC(C)O3)c1C(F)(F)F` (single isomer, unassigned) [Example 249], the IC50 at WT KRAS was 3 to 1000 nM.

For `Cc1cc(N)cc(-c2nc3c4c(nc(OCC5(CN6CC7CC7C6)CC5(F)F)nc4c2F)N2C[C@H]4CC[C@H](N4)[C@H]2CCO3)c1C(F)(F)F` (single isomer, unassigned) [Example 29], at WT KRAS, the IC50 was in the range of 0.3 to 3 nM.

In the case of `Cc1cc(N)cc(-c2nc3c4c(nc(O[C@@H]5COCC[C@H]5N(C)C)nc4c2F)N2C[C@H]4CC[C@H](N4)[C@H]2CCO3)c1C(F)(F)F` [Example 10, (3S,4R)-3-(((6aR,7S,10R)-2-(5-amino-3-methyl-2-(trifluoromethyl)phenyl)-1-fluoro-5,6,6a,7,8,9,10,11-octahydro-4-oxa-3,11a,12,14,15-pentaaza-7,10-methanocyclohepta[4,5]cycloocta [1,2,3-de]naphthalen-13-yl)oxy)-N,N-dimethyltetrahydro-2H-pyran-4-amine], on KRAS G12D, the IC50 was in the range of 3 to 1000 nM.

On to `Cc1cc(N)cc(-c2nc3c4c(nc(OCC5(C)CN(C)CC/C5=C\F)nc4c2F)N2C[C@H]4CC[C@H](N4)[C@H]2CCO3)c1C(F)(F)F` (single isomer, unassigned) [Example 237], for which, at WT KRAS, the IC50 lay in the range of 0.3 to 3 nM.

Turning to `COC1CN(C)CC(C)(COc2nc3c4c(nc(-c5cc(N)cc(C)c5C(F)(F)F)c(F)c4n2)OCC[C@@H]2[C@@H]4CC[C@H](CN32)N4)C1` (stereo partly drawn) [Example 127, 3-((6aR,7S,10R)-1-fluoro-13-((5-methoxy-1,3-dimethylpiperidin-3-yl)methoxy)-5,6,6a,7,8,9,10,11-octahydro-4-oxa-3,11a,12,14,15-pentaaza-7,10-methanocyclohepta[4,5]cycloocta[1,2,3-de]naphthalen-2-yl)-5-methyl-4-(trifluoromethyl)aniline], at KRAS G12D, the half-maximal inhibitory concentration (IC50) was below 0.3 nM.

For the compound `Cc1cc(N)cc(-c2nc3c4c(nc(O[C@H]5CCOC[C@@H]5N(C)C)nc4c2F)N2C[C@H]4CC[C@H](N4)[C@H]2CCO3)c1C(F)(F)F` [Example 9, (3S,4S)-4-(((6aR,7S,10R)-2-(5-amino-3-methyl-2-(trifluoromethyl)phenyl)-1-fluoro-5,6,6a,7,8,9,10,11-octahydro-4-oxa-3,11a,12,14,15-pentaaza-7,10-methanocyclohepta[4,5]cycloocta [1,2,3-de]naphthalen-13-yl)oxy)-N,N-dimethyltetrahydro-2H-pyran-3-amine], the 50% inhibitory concentration (IC50) at KRAS G12D fell in the range of 3 to 1000 nM.

Turning to `COC1CN(C)CC(C)(COc2nc3c4c(nc(-c5cc(N)cc(C)c5C(F)(F)F)c(F)c4n2)OCC[C@@H]2[C@@H]4CC[C@H](CN32)N4)C1` (stereo partly drawn) [Example 129, 3-((6aR,7S,10R)-1-fluoro-13-((5-methoxy-1,3-dimethylpiperidin-3-yl)methoxy)-5,6,6a,7,8,9,10,11-octahydro-4-oxa-3,11a,12,14,15-pentaaza-7,10-methanocyclohepta[4,5]cycloocta[1,2,3-de]naphthalen-2-yl)-5-methyl-4-(trifluoromethyl)aniline], the half-maximal inhibitory concentration (IC50) on KRAS G12D is 3 to 1000 nM.

`CCN1CC(F)CC(C)(COc2nc3c4c(nc(-c5cc(N)cc(C)c5C(F)(F)F)c(F)c4n2)OCC[C@@H]2[C@@H]4CC[C@H](CN32)N4)C1` (stereo partly drawn) [Example 203, 3-((6aR,7S,10R)-13-((1-ethyl-5-fluoro-3-methylpiperidin-3-yl)methoxy)-1-fluoro-5,6,6a,7,8,9,10,11-octahydro-4-oxa-3,11a,12,14,15-pentaaza-7,10-methanocyclohepta[4,5]cycloocta[1,2,3-de]naphthalen-2-yl)-5-methyl-4-(trifluoromethyl)aniline]: the IC50 on KRAS G12D lay in the range of 0.3 to 3 nM.

With `Cc1cc(N)cc(-c2nc3c4c(nc(OCC5(CN6CCn7ncnc7C6)CC5)nc4c2F)N2C[C@H]4CC[C@H](N4)[C@H]2CCO3)c1C(F)(F)F` [Example 109, 3-((6aR,7S,10R)-13-((1-((5,6-dihydro-[1,2,4]triazolo[1,5-a]pyrazin-7(8H)-yl)methyl)cyclopropyl)methoxy)-1-fluoro-5,6,6a,7,8,9,10,11-octahydro-4-oxa-3,11a, 12,14,15-pentaaza-7,10-methanocyclohepta [4,5]cycloocta [1,2,3-de]naphthalen-2-yl)-5-methyl-4-(trifluoromethyl)aniline], the 50% inhibitory concentration (IC50) on KRAS G12D fell in the range of 3 to 1000 nM.

In the case of `Cc1cc(N)cc(-c2nc3c4c(nc(OCC5(C)CN(CC6CC6)CC/C5=C\F)nc4c2F)N2C[C@H]4CC[C@H](N4)[C@H]2CCO3)c1C(F)(F)F` (single isomer, unassigned) [Example 239], at WT KRAS, the IC50 was in the range of 0.3 to 3 nM.

`Cc1cc(N)cc(-c2nc3c4c(nc(O[C@H]5CCOC[C@H]5N(C)C)nc4c2F)N2C[C@H]4CC[C@H](N4)[C@H]2CCO3)c1C(F)(F)F` [Example 11, (3R,4S)-4-(((6aR,7S,10R)-2-(5-amino-3-methyl-2-(trifluoromethyl)phenyl)-1-fluoro-5,6,6a,7,8,9,10,11-octahydro-4-oxa-3,11a,12,14,15-pentaaza-7,10-methanocyclohepta[4,5]cycloocta [1,2,3-de]naphthalen-13-yl)oxy)-N,N-dimethyltetrahydro-2H-pyran-3-amine]: the half-maximal inhibitory concentration (IC50) at KRAS G12D fell in the range of 3 to 1000 nM.
